For orientation: IC50 means the concentration that inhibits the measured activity by half. A high value points to weaker potency in that assay.

This test is described as follows: Inhibition of cell division of Strongylocentrotus intermedius fertilized eggs. It is filed as functional, Egg.
Regarding `COc1cc(Br)cc2c1Oc1cc(Br)cc(Br)c1O2` [SPONGIADIOXIN C METHYL ETHER], the IC50 came out at 166 µM.
Take `Oc1cc(Br)cc2c1Oc1cc(Br)cc(Br)c1O2` [SPONGIADIOXIN C]: the IC50 came out at 5.7 µM.
Take `Oc1c(Br)c(Br)cc2c1Oc1cc(Br)cc(Br)c1O2` [SPONGIADIOXIN B]: the IC50 stood at 1.1 µM.
In the case of `COc1c(Br)cc(Br)cc1Oc1ccc(Br)cc1Br`, it took 145 µM to reach half-maximal inhibition (IC50).
With `COc1cc(Br)c(Br)c2c1Oc1cc(Br)cc(Br)c1O2` [SPONGIADIOXIN A METHYL ETHER] the figure was 141 µM; with `Oc1cc(Br)c(Br)c2c1Oc1cc(Br)cc(Br)c1O2` [SPONGIADIOXIN A], 4.8 µM.
In turn, `COc1c(Br)c(Br)cc2c1Oc1cc(Br)cc(Br)c1O2` [SPONGIADIOXIN B METHYL ETHER] had an IC50 of 94 µM.
`COc1cc(Br)cc(Br)c1Oc1cc(Br)cc(Br)c1O` had an IC50 of 4.7 µM.
Regarding `COc1cc(Br)cc(Br)c1Oc1cc(Br)cc(Br)c1OC`, it took 137 µM to reach half-maximal inhibition (IC50).

For the origin of these results see ChEMBL document CHEMBL1150620, “Two new minor polybrominated dibenzo-p-dioxins from the marine sponge Dysidea dendyi” (J Nat Prod, 2002).
